# Laboratory results published in ChEMBL document CHEMBL1201862, “PubChem BioAssay data set” (2004).
#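 Five concentrations, 48 hours, 96-well plates. Abbreviation: GI50, concentration required for 50% inhibition of growth.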 The source made the active and inactive calls. No stated cut-off is given here; in the data, active = GI50 up to about 1.1 µM and inactive = higher.
# Columns and labels:
# Assay in all cases: DTP human tumour cell line panel, 48 h
# MDA-MB-435 = tested on: MDA-MB-435
# HOP-92 = tested on: HOP-92
# 786-0 = tested on: 786-0
# SK-MEL-28 = tested on: SK-MEL-28
# OVCAR-4 = tested on: OVCAR-4
# NCI-H522 = tested on: NCI-H522
# HOP-62 = tested on: HOP-62
# UACC-257 = tested on: UACC-257
# HCT-15 = tested on: HCT-15
# NCI-H460 = tested on: NCI-H460
# NCI/ADR-RES = tested on: NCI/ADR-RES
# HL-60 = tested on: HL-60
# SNB-75 = tested on: SNB-75
# EKVX = tested on: EKVX
# RPMI-8226 = tested on: RPMI-8226
# SN12C = tested on: SN12C
# SK-OV-3 = tested on: SK-OV-3
# OVCAR-8 = tested on: OVCAR-8
# M14 = tested on: M14
# CAKI-1 = tested on: CAKI-1
# T47D = tested on: T47D
# COLO 205 = tested on: COLO 205
# IGROV-1 = tested on: IGROV-1
# Hs-578T = tested on: Hs-578T
# OVCAR-3 = tested on: OVCAR-3
# SW-620 = tested on: SW-620
# CCRF-CEM = tested on: CCRF-CEM
# SF-539 = tested on: SF-539
# OVCAR-5 = tested on: OVCAR-5
# MDA-N = tested on: MDA-N
# SNB-19 = tested on: SNB-19
# K562 = tested on: K562
# MOLT-4 = tested on: MOLT-4
# SF-268 = tested on: SF-268
# UACC-62 = tested on: UACC-62
# KM12 = tested on: KM12
# SF-295 = tested on: SF-295
# RXF 393 = tested on: RXF 393
# SK-MEL-2 = tested on: SK-MEL-2
# SK-MEL-5 = tested on: SK-MEL-5
# A549 = tested on: A549
# HCC 2998 = tested on: HCC 2998
# HT-29 = tested on: HT-29
# LOX IMVI = tested on: LOX IMVI
# TK-10 = tested on: TK-10
# A498 = tested on: A498
# MCF7 = tested on: MCF7
# NCI-H226 = tested on: NCI-H226
# DU-145 = tested on: DU-145
# UO-31 = tested on: UO-31
# BT-549 = tested on: BT-549
# U-251 = tested on: U-251
# ACHN = tested on: ACHN
# HCT-116 = tested on: HCT-116
# NCI-H23 = tested on: NCI-H23
# Malme-3M = tested on: Malme-3M
# MDA-MB-231 = tested on: MDA-MB-231
# PC-3 = tested on: PC-3
# SR = tested on: SR
structure (smiles),measurement,setting,value
COc1cc(-c2c3c([nH]c(=O)c2C#N)-c2cc([N+](=O)[O-])ccc2CCC3)cc(OC)c1OC,GI50,MDA-MB-435,25.9 µM (inactive)
same,GI50,HOP-92,25.4 µM (inactive)
same,GI50,786-0,24.7 µM (inactive)
same,GI50,SK-MEL-28,43.5 µM (inactive)
same,GI50,OVCAR-4,21.5 µM (inactive)
same,GI50,NCI-H522,15.6 µM (inactive)
same,GI50,HOP-62,19.9 µM (inactive)
same,GI50,UACC-257,26.9 µM (inactive)
same,GI50,HCT-15,26.4 µM
same,GI50,NCI-H460,16.8 µM (inactive)
same,GI50,NCI/ADR-RES,42.4 µM (inactive)
same,GI50,HL-60,21.4 µM (inactive)
same,GI50,SNB-75,21.7 µM (inactive)
same,GI50,EKVX,24.4 µM (inactive)
same,GI50,RPMI-8226,9.08 µM (inactive)
same,GI50,SN12C,16.2 µM (inactive)
same,GI50,SK-OV-3,15.5 µM (inactive)
same,GI50,OVCAR-8,17.8 µM (inactive)
same,GI50,M14,35.1 µM (inactive)
same,GI50,CAKI-1,26.9 µM (inactive)
same,GI50,T47D,14.1 µM (inactive)
same,GI50,COLO 205,22 µM (inactive)
same,GI50,IGROV-1,33.1 µM (inactive)
same,GI50,Hs-578T,13.3 µM (inactive)
same,GI50,OVCAR-3,15.5 µM (inactive)
same,GI50,SW-620,40.5 µM (inactive)
same,GI50,CCRF-CEM,21.7 µM (inactive)
same,GI50,SF-539,24.3 µM (inactive)
same,GI50,OVCAR-5,23.7 µM (inactive)
same,GI50,MDA-N,21.1 µM (inactive)
same,GI50,SNB-19,30.8 µM (inactive)
same,GI50,K562,18.9 µM (inactive)
same,GI50,MOLT-4,16 µM (inactive)
same,GI50,SF-268,24.2 µM (inactive)
same,GI50,UACC-62,13.3 µM (inactive)
same,GI50,KM12,20.2 µM (inactive)
same,GI50,SF-295,16.1 µM (inactive)
same,GI50,RXF 393,22.1 µM (inactive)
same,GI50,SK-MEL-2,17.9 µM (inactive)
same,GI50,SK-MEL-5,12.9 µM (inactive)
same,GI50,A549,23.8 µM (inactive)
same,GI50,HCC 2998,17.2 µM (inactive)
same,GI50,HT-29,37.5 µM (inactive)
same,GI50,LOX IMVI,15.1 µM (inactive)
same,GI50,TK-10,34.8 µM (inactive)
same,GI50,A498,14.2 µM (inactive)
same,GI50,MCF7,17.4 µM (inactive)
same,GI50,NCI-H226,22.7 µM (inactive)
same,GI50,DU-145,25.8 µM (inactive)
same,GI50,UO-31,19 µM (inactive)
same,GI50,BT-549,17.5 µM (inactive)
same,GI50,U-251,23.6 µM (inactive)
same,GI50,ACHN,21 µM (inactive)
same,GI50,HCT-116,18.8 µM (inactive)
same,GI50,NCI-H23,17.4 µM (inactive)
same,GI50,Malme-3M,22.8 µM (inactive)
same,GI50,MDA-MB-231,19.9 µM (inactive)
same,GI50,PC-3,20.2 µM (inactive)
CC(N)(CC(O)(C(F)(F)Cl)C(F)(F)Cl)C(=O)O (centres undefined),GI50,MDA-MB-435,> 10 µM (inactive)
same,GI50,HOP-92,> 10 µM (inactive)
same,GI50,786-0,> 10 µM (inactive)
same,GI50,SK-MEL-28,> 10 µM (inactive)
same,GI50,OVCAR-4,> 10 µM (inactive)
same,GI50,NCI-H522,> 10 µM (inactive)
same,GI50,HOP-62,> 10 µM (inactive)
same,GI50,UACC-257,> 10 µM (inactive)
same,GI50,HCT-15,> 10 µM
same,GI50,NCI-H460,> 10 µM (inactive)
same,GI50,NCI/ADR-RES,> 10 µM (inactive)
same,GI50,SNB-75,> 10 µM (inactive)
same,GI50,EKVX,> 10 µM (inactive)
same,GI50,SN12C,> 10 µM (inactive)
same,GI50,SK-OV-3,> 10 µM (inactive)
same,GI50,OVCAR-8,> 10 µM (inactive)
same,GI50,M14,> 10 µM (inactive)
same,GI50,CAKI-1,> 10 µM (inactive)
same,GI50,T47D,> 10 µM (inactive)
same,GI50,COLO 205,> 10 µM (inactive)
same,GI50,IGROV-1,> 10 µM (inactive)
same,GI50,Hs-578T,> 10 µM (inactive)
same,GI50,OVCAR-3,> 10 µM (inactive)
same,GI50,SW-620,> 10 µM (inactive)
same,GI50,CCRF-CEM,> 10 µM (inactive)
same,GI50,SF-539,> 10 µM (inactive)
same,GI50,OVCAR-5,> 10 µM (inactive)
same,GI50,MDA-N,> 10 µM (inactive)
same,GI50,SNB-19,> 10 µM (inactive)
same,GI50,K562,> 10 µM (inactive)
same,GI50,SR,> 10 µM (inactive)
same,GI50,MOLT-4,> 10 µM (inactive)
same,GI50,SF-268,> 10 µM (inactive)
same,GI50,UACC-62,> 10 µM (inactive)
same,GI50,KM12,> 10 µM (inactive)
same,GI50,SF-295,> 10 µM (inactive)
same,GI50,SK-MEL-5,> 10 µM (inactive)
same,GI50,A549,> 10 µM (inactive)
same,GI50,HCC 2998,> 10 µM (inactive)
same,GI50,HT-29,> 10 µM (inactive)
same,GI50,LOX IMVI,> 10 µM (inactive)
same,GI50,TK-10,> 10 µM (inactive)
same,GI50,A498,> 10 µM (inactive)
same,GI50,MCF7,> 10 µM (inactive)
same,GI50,NCI-H226,> 10 µM (inactive)
same,GI50,DU-145,> 10 µM (inactive)
same,GI50,UO-31,> 10 µM (inactive)
same,GI50,BT-549,> 10 µM (inactive)
same,GI50,U-251,> 10 µM (inactive)
same,GI50,ACHN,> 10 µM (inactive)
same,GI50,HCT-116,> 10 µM (inactive)
same,GI50,NCI-H23,> 10 µM (inactive)
same,GI50,Malme-3M,> 10 µM (inactive)
same,GI50,MDA-MB-231,> 10 µM (inactive)
same,GI50,PC-3,> 10 µM (inactive)
O=C(O)CC[P+](c1ccccc1)(c1ccccc1)c1ccccc1,GI50,MDA-MB-435,26.5 µM (inactive)
same,GI50,786-0,30.6 µM (inactive)
same,GI50,SK-MEL-28,> 100 µM (inactive)
same,GI50,OVCAR-4,46.2 µM (inactive)
same,GI50,NCI-H522,24.5 µM (inactive)
same,GI50,HOP-62,37.2 µM (inactive)
same,GI50,UACC-257,23.2 µM (inactive)
same,GI50,HCT-15,> 100 µM
same,GI50,NCI/ADR-RES,> 100 µM (inactive)
same,GI50,HL-60,11.5 µM (inactive)
same,GI50,SNB-75,28.4 µM (inactive)
same,GI50,EKVX,36.8 µM (inactive)
same,GI50,RPMI-8226,3.21 µM (inactive)
same,GI50,SN12C,16.9 µM (inactive)
same,GI50,SK-OV-3,88.5 µM (inactive)
same,GI50,OVCAR-8,43.5 µM (inactive)
same,GI50,M14,23.1 µM (inactive)
same,GI50,CAKI-1,> 100 µM (inactive)
same,GI50,T47D,7.94 µM (inactive)
same,GI50,COLO 205,14.3 µM (inactive)
same,GI50,IGROV-1,15 µM (inactive)
same,GI50,Hs-578T,48.3 µM (inactive)
same,GI50,OVCAR-3,13.5 µM (inactive)
same,GI50,SW-620,> 100 µM (inactive)
same,GI50,CCRF-CEM,50.7 µM (inactive)
same,GI50,OVCAR-5,38.1 µM (inactive)
same,GI50,MDA-N,20.4 µM (inactive)
same,GI50,SNB-19,24.2 µM (inactive)
same,GI50,K562,11.7 µM (inactive)
same,GI50,SR,50.4 µM (inactive)
same,GI50,MOLT-4,49.1 µM (inactive)
same,GI50,SF-268,31.3 µM (inactive)
same,GI50,UACC-62,22.3 µM (inactive)
same,GI50,KM12,29 µM (inactive)
same,GI50,SF-295,79.6 µM (inactive)
same,GI50,RXF 393,> 100 µM (inactive)
same,GI50,SK-MEL-2,21.6 µM (inactive)
same,GI50,SK-MEL-5,14.6 µM (inactive)
same,GI50,A549,45.4 µM (inactive)
same,GI50,HCC 2998,> 100 µM (inactive)
same,GI50,HT-29,15.4 µM (inactive)
same,GI50,LOX IMVI,30.7 µM (inactive)
same,GI50,TK-10,> 100 µM (inactive)
same,GI50,A498,42.9 µM (inactive)
same,GI50,MCF7,39 µM (inactive)
same,GI50,NCI-H226,53.5 µM (inactive)
same,GI50,DU-145,48.2 µM (inactive)
same,GI50,UO-31,> 100 µM (inactive)
same,GI50,BT-549,21.1 µM (inactive)
same,GI50,U-251,23.2 µM (inactive)
same,GI50,ACHN,> 100 µM (inactive)
same,GI50,HCT-116,21.3 µM (inactive)
same,GI50,NCI-H23,23.3 µM (inactive)
same,GI50,Malme-3M,16.3 µM (inactive)
same,GI50,MDA-MB-231,57.5 µM (inactive)
same,GI50,PC-3,37.4 µM (inactive)
